Assay results taken from patent US12102631B2, “Quinolylnitrones for the treatment and prevention of a cerebral stroke or ischaemia” (ISQUAEMIA BIOTECH, S.L., priority 2018, dated 2024).

Legend:
[1] = Superoxide radical scavenging (hypoxanthine/xanthine oxidase system); assay type: biochemical; settings: tested at 100 μM (0.1 mM)
Text: 3.7. Superoxide radical scavenging activity. Superoxide anion radical (O2⋅−) is less toxic than hydroxyl radical, but still one of the most known harmful toxic ROS. In physiological conditions, superoxide dismutase catalyzes its conversion to H2O2, which is the precursor for the formation of hydroxyl radicals in the presence of iron ions.43 Superoxide anion radicals O2⋅− and H2O2 are ROS produced in vivo through a one-electron reduction process of O2. The evaluation of superoxide anion radical scavenging activity can be determined using assays involving non-enzymatic or enzymatic production of superoxide anions. In this assay, superoxide anion radicals were generated by a hypoxanthine and xanthine oxidase reaction system, and the O2⋅− scavenging activity (%) has been measured spectrophotometrically.

[2] = tested on: primary neuronal cultures from rat cerebral cortex; experiment: Neuroprotection (MTT cell viability) in primary neuronal cultures exposed to oxygen-glucose deprivation (OGD); assay type: cell-based; settings: 24 h recovery after 4 h OGD, R24 h = 0%, control = 100%
Description: Primary neuronal cultures. Primary neuronal cultures from rat cerebral cortex were prepared as previously described.^54 All procedures associated with animal experiments were approved by the Ethics Committee of the Hospital Ramón y Cajal, Madrid (Spain). Cell suspensions from cerebral cortex were prepared from 16- to 17-day-old Sprague-Dawley rat embryos. Living cells in cell suspension were counted by trypan blue exclusion method. Cells were seeded on plastic multidishes precoated with 0.05 mg/mL poly-D-lysine at a density of 2.5×10^5 cells/cm^2 and were kept at 37° C. in a 6.5% CO2 atmosphere in high glucose Dulbecco's medium supplemented with 15% heat-inactivated (56° C. for 30 min) foetal calf serum. After 24 h, cultured cells were […] to induce experimental ischemia.^23 Cultured cells were washed and placed in glucose-free Dulbecco's medium (bubbled with 95% N2/5% CO2 for 30 min), and maintained in a humidified hypoxia chamber equipped with an oxygen and carbon dioxide control unit (Biospherix) at 6.5% CO2 and <0.1% O2 in N2 at 37° C. Cells were exposed to OGD for a period of 4 h (OGD 4 h). At the end of the OGD period, culture medium was replaced with oxygenated serum-free medium, and cells were placed and maintained in the normoxic incubator for 24 h to recovery (R24 h). In the neuroprotection experiments, the compounds were added at the onset of recovery period. Control cultures in Dulbecco's medium containing glucose were kept in the normoxic incubator for the same period of time as the OGD, and then medium (Dulbecco's/Ham's F12, 1:1 [vol/vol], 5 mg/mL glucose, 2 mM L-glutamine, and 1 mM sodium pyruvate, and supplemented with 100 μg/mL transferrin, 100 μM putrescine, 20 nM progesterone, 30 nM sodium selenite and 5 μg/mL insulin). Here, 6-7 day old cultured neurons were used in the experiments, and contained 90% β-III-tubulin-positive mature neurons, as described previously.^55
Exposure of cell cultures to oxygen-glucose deprivation and treatments. Primary neuronal cultures were exposed to […]. Control experiments included the same amounts of vehicle (final concentration<0.5% ethanol). Nitrone 2 was used as reference compound for neuroprotection. The experimental procedures were blindly performed, assigning a random order to each assayed nitrone. Nitrones were analyzed independently four-eight times with different batch of cultures and each experiment was run in quadruplicate.
Cell viability assay. Cell viability was evaluated by quantification of living, metabolically active cells, as determined by a colorimetric assay using the photometric reduction of 3-(4,5-dimethylthiazol-2-yl)-2,5-diphenyl tetrazolium bromide (MTT) (Roche) to a blue formazan product. The assay of living, metabolically active cells was performed by incubating with 0.2 mg/mL MTT in the culture medium for 1.5 h in an incubator at 37° C. in a 6.5% CO2 atm. After the incubation period, cells were lysed with an equal volume of 10 mM HCl and 10% SDS overnight. Values were quantified by absorbance (test 595 nm, reference 690 nm). Decreased MTT activity denotes impairment of mitochondrial function and is considered to be an index of cell damage. Primary neuronal cultures were collected at times indicated for MTT determination.
Neuroprotection of compounds was evaluated by a cell viability assay. The neuroprotective effect of the compounds 5-32 was evaluated on primary neuronal cultures from cerebral cortex subjected to oxygen-glucose deprivation (OGD) to induce experimental ischemia. Afterwards, cultured neurons were placed and kept in normoxic and normoglycemic conditions to recovery. […]

SMILES | viability at 10 µM ([2]; Rattus norvegicus, 10 μM) | viability at 1 µM ([2]; Rattus norvegicus, 1 μM) | viability at 100 µM ([2]; Rattus norvegicus, 100 μM) | viability at 250 µM ([2]; Rattus norvegicus) | further results
O=C(O)/C=C/c1ccc(O)c(O)c1 [Caffeic acid, caffeic acid, reference compound] |  |  |  |  | O2*− (%) [1]: 15%
Cc1ccc2nc(Cl)c(/C=[N+](\[O-])Cc3ccccc3)cc2c1 [Compound 4, (Z)—N-benzyl-1-(2-chloro-6-methylquinolin-3-yl)methanimine oxide, reference compound] | 55.4 ± 1.74% |  |  |  | viability at 50 µM ([2]; Rattus norvegicus, 50 μM): 56.8 ± 2.57%
Cc1ccc2nc(Cl)c(C=NO)cc2c1 [Compound 6] |  |  |  |  | Neuroprotection (%) ([2]; 0.5 μM): 8.30 ± 0.62%; Neuroprotection (%) ([2]; 1 μM): 11.28 ± 1.32%; Neuroprotection (%) ([2]; 10 μM): <0%; Neuroprotection (%) ([2]; 100 μM): <0%
Cc1ccc2nc(Cl)c(/C=[N+](\[O-])c3ccccc3)cc2c1 [Compound 11, (Z)-1-(2-Chloro-6-methylquinolin-3-yl)-N-phenylmethanimine oxide] | 36.5 ± 1% | 21.1 ± 0.31% | < 0% | 1 ± 0.07% | 
Cc1ccc2ncc(/C=[N+](\[O-])Cc3ccccc3)cc2c1 [Compound 12, (Z)—N-Benzyl-1-(6-methylquinolin-3-yl)methanimine oxide] | 37.7 ± 0.66% | 37 ± 0.05% | 34.4 ± 0.67% | 34.11 ± 0.15% | 
Cc1ccc2[nH]c(=O)c(/C=[N+](\[O-])Cc3ccccc3)cc2c1 [Compound 13, (Z)—N-Benzyl-1-(6-methyl-2-oxo-1,2-dihydroquinolin-3-yl)methanimine oxide] | 35.9 ± 1.46% |  | 42 ± 1.86% | 29.8 ± 1.25% | 
COc1nc2ccc(C)cc2cc1/C=[N+](\[O-])Cc1ccccc1 [Compound 14, (Z)—N-Benzyl-1-(2-methoxy-6-methylquinolin-3-yl)methanimine oxide] | 23.7 ± 1.77% | 17.6 ± 1.11% | < 0% |  | 
CNc1nc2ccc(C)cc2cc1/C=[N+](\[O-])Cc1ccccc1 [Compound 15, (Z)—N-Benzyl-1-(6-methyl-2-(methylamino)quinolin-3-yl)methanimine oxide] | < 0% | 8.5 ± 0.18% |  |  | viability at 5 µM ([2]; Rattus norvegicus, 5 μM): 1.57 ± 0.03%
Cc1ccc2nc(N(C)C)c(/C=[N+](\[O-])Cc3ccccc3)cc2c1 [Compound 16, (Z)—N-Benzyl-1-(2-(dimethylamino)-6-methylquinolin-3-yl)methanimine oxide] | 34.3 ± 0.59% | 12.9 ± 0.34% | < 0% | < 0% | 
Cc1ccc2[nH]c(=O)c(/C=[N+](\[O-])C(C)(C)C)cc2c1 [Compound 17, (Z)—N-tert-Butyl-1-(6-methyl-2-oxo-1,2-dihydroquinolin-3-yl)methanimine oxide] | 20.2 ± 1.1% |  | 17.6 ± 1.35% | 10.9 ± 0.88% | 
[O-]/[N+](=C\c1cc2ccccc2nc1Cl)Cc1ccccc1 [Compound 20, (Z)—N-Benzyl-1-(2-chloroquinolin-3-yl)methanimine oxide] | < 0% | 32.8 ± 2.72% | < 0% |  | 
COc1nc2ccccc2cc1/C=[N+](\[O-])Cc1ccccc1 [Compound 21, (Z)—N-Benzyl-1-(2-methoxyquinolin-3-yl)methanimine oxide] | 24.2 ± 0.36% | < 0% | < 0% |  | 
[O-]/[N+](=C\c1cc2cc(O)ccc2nc1Cl)Cc1ccccc1 [Compound 25, (Z)—N-Benzyl-1-(2-chloro-6-hydroxyquinolin-3-yl)methanimine oxide] | < 0% | 25.15 ± 0.14% | < 0% | < 0% | 
[O-]/[N+](=C\c1cc2cc(Cl)ccc2nc1Cl)Cc1ccccc1 [Compound 26, (Z)—N-Benzyl-1-(2,6-dichloroquinolin-3-yl)methanimine oxide] | 37.7 ± 0.52% | 41.72 ± 0.3% | < 0% | 0.35 ± 0.02% | 
COc1ccc2cc(/C=[N+](\[O-])Cc3ccccc3)c(Cl)nc2c1 [Compound 27, (Z)—N-Benzyl-1-(2-chloro-7-methoxyquinolin-3-yl)methanimine oxide] | 28 ± 1.15% | 26.6 ± 0.37% | 19.4 ± 1.51% |  | 
COc1ccc(OC)c2nc(Cl)c(/C=[N+](\[O-])Cc3ccccc3)cc12 [Compound 28, (Z)—N-Benzyl-1-(2-chloro-5,8-dimethoxyquinolin-3-yl)methanimine oxide] | 38.6 ± 0.55% | 35.1 ± 0.84% | 44.27 ± 0.39% |  | 
CC(C)(C)/[N+]([O-])=C/c1cc2ccccc2n2nnnc12 [Compound 31, (Z)—N-tert-Butyl-1-(tetrazolo[1,5-a]quinolin-4-yl)methanimine oxide] | 9.84 ± 0.65% | 7.64 ± 0.14% | 5.83 ± 0.56% |  | 
